# Activity calls are given as the source filed them. The rule behind the calls is not given here.
# Legend:
# [1] = molecular target: T1, Amine oxidase [flavin-containing] A (Homo sapiens, UniProt P21397); experiment: Inhibition of recombinant human MAO-A expressed in baculovirus infected insect cell microsomes at 10 uM using kynuramine as substrate measured after 30 mins by fluorescence based assay relative to control; details: 0.5 h
# T1 sequence (P21397 whole entry): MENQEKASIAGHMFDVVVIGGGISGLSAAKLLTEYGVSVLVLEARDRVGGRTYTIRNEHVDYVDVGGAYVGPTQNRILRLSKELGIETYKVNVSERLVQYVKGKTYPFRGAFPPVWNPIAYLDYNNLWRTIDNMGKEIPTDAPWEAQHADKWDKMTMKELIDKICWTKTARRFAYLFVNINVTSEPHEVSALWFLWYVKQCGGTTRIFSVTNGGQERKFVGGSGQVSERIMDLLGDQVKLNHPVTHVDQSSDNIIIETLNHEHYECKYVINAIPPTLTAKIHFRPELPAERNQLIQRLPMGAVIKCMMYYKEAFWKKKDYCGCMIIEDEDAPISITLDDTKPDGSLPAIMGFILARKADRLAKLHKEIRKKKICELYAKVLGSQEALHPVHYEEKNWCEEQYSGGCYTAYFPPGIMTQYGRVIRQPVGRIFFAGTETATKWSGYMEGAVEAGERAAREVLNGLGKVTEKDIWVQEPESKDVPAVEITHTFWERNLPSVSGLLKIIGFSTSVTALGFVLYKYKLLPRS
# [2] = molecular target: T2, Amine oxidase [flavin-containing] B (Homo sapiens, UniProt P27338); experiment: Inhibition of recombinant human MAO-B expressed in baculovirus infected insect cell microsomes at 10 uM using kynuramine as substrate measured after 30 mins by fluorescence based assay relative to control; details: 0.5 h
# T2 sequence (P27338 whole entry): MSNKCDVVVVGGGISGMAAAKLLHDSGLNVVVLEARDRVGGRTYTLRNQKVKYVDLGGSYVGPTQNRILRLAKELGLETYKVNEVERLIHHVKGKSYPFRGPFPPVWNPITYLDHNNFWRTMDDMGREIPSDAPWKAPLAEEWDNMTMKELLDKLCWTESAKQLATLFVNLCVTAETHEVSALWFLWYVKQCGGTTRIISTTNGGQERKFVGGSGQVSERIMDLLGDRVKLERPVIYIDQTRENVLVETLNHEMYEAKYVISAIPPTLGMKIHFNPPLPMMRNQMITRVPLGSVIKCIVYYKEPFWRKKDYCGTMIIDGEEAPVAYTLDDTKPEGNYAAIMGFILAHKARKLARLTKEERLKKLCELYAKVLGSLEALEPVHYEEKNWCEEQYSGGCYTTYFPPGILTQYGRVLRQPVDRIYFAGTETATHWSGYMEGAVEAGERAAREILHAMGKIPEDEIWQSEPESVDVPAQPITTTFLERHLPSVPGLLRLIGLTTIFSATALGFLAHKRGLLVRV
# [3] = molecular target: T2, Amine oxidase [flavin-containing] B; experiment: Inhibition of recombinant human MAO-B expressed in baculovirus infected insect cell microsomes at 10 uM using kynuramine as substrate measured after 30 mins by spectrophotometric assay relative to control; details: 0.5 h
# [4] = molecular target: Acetylcholinesterase (Electrophorus electricus) (UniProt O42275); experiment: Inhibition of electric eel AChE at 10 uM using acetylthiocholine iodide as substrate by Ellman's method relative to control
# Chain of Acetylcholinesterase (Electrophorus electricus) (O42275 24-633 limits assumed): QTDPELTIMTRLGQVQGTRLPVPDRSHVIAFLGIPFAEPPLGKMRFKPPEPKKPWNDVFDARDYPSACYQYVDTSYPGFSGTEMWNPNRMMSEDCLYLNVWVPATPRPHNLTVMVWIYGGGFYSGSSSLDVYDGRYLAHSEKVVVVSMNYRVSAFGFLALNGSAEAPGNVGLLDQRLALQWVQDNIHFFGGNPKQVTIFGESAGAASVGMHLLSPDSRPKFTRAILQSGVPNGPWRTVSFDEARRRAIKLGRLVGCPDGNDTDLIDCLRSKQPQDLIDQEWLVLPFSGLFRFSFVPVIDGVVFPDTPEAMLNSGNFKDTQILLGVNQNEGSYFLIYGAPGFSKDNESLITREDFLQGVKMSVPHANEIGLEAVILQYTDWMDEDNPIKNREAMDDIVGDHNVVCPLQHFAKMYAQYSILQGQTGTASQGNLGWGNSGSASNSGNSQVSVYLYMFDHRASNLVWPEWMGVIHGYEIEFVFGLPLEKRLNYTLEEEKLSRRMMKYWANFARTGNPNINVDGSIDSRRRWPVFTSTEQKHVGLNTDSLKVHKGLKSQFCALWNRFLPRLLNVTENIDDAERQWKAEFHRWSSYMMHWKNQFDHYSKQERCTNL
# [5] = molecular target: Cholinesterase (Equus caballus) (UniProt P81908); experiment: Inhibition of equine serum BuChE at 10 uM using butyrylthiocholine iodide as substrate by Ellman's method relative to control
# Chain of Cholinesterase (Equus caballus) (P81908 whole entry): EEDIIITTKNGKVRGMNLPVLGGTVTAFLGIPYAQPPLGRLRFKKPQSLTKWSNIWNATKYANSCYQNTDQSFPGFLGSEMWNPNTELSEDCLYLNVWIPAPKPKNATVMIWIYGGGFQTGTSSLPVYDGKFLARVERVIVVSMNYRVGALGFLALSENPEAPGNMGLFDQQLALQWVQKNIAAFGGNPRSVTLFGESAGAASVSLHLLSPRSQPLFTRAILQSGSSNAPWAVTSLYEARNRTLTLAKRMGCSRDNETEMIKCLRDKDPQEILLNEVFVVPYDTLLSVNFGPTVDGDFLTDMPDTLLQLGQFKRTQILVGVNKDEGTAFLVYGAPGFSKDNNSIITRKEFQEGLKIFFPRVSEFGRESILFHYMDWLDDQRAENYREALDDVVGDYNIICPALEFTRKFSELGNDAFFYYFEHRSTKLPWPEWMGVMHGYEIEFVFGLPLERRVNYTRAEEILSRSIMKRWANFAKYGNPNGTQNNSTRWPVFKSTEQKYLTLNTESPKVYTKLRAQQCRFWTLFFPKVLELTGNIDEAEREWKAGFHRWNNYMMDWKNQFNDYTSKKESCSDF
# SH-SY5Y = experiment: Neuroprotection against rotenone/H2O2-induced cell death in human SH-SY5Y cells assessed as increase in cell viability at 0.1 to […] preincubated for 24 hrs followed by rotenone/H2O2 addition measured after 24 hrs by MTT assay; assay type: functional, cell-based
# [6] = molecular target: T1, Amine oxidase [flavin-containing] A; experiment: Inhibition of recombinant human MAO-A expressed in baculovirus infected insect cell microsomes using kynuramine as substrate measured after 30 mins by fluorescence based assay
# [7] = molecular target: T2, Amine oxidase [flavin-containing] B; experiment: Inhibition of recombinant human MAO-B expressed in baculovirus infected insect cell microsomes using kynuramine as substrate measured after 30 mins by fluorescence based assay
# [8] = Drug metabolism in PBS buffer assessed as nitric oxide release at 150 uM in presence of cysteine by Griess reagent based UV-Visible spectrophotometric method; details: TDE = time-dependent effect
# Acetylcholinesterase = Acetylcholinesterase (Homo sapiens, UniProt P22303); experiment: Inhibition of human recombinant AChE using acetylthiocholine iodide as substrate by Ellman's method
# Chain of Acetylcholinesterase (P22303 whole entry): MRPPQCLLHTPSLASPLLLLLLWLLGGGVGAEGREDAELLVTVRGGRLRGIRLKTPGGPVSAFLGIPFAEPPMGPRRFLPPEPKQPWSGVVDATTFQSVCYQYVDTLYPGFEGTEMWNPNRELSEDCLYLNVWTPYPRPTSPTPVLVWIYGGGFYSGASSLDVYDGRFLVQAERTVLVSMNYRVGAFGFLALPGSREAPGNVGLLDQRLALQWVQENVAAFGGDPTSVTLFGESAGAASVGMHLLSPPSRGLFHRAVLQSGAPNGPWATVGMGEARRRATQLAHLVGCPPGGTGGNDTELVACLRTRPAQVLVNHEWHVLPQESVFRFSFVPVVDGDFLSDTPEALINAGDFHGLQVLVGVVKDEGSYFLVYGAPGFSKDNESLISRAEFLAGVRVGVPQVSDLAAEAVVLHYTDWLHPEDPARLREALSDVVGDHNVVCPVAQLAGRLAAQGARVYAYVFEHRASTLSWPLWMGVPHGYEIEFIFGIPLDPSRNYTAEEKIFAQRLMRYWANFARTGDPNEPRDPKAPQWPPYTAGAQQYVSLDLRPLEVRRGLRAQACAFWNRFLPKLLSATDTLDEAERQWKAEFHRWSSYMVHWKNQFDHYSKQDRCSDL
# Cholinesterase = Cholinesterase (Homo sapiens, UniProt P06276); experiment: Inhibition of human serum BuChE using butyrylthiocholine iodide as substrate by Ellman's method
# Chain of Cholinesterase (P06276 whole entry): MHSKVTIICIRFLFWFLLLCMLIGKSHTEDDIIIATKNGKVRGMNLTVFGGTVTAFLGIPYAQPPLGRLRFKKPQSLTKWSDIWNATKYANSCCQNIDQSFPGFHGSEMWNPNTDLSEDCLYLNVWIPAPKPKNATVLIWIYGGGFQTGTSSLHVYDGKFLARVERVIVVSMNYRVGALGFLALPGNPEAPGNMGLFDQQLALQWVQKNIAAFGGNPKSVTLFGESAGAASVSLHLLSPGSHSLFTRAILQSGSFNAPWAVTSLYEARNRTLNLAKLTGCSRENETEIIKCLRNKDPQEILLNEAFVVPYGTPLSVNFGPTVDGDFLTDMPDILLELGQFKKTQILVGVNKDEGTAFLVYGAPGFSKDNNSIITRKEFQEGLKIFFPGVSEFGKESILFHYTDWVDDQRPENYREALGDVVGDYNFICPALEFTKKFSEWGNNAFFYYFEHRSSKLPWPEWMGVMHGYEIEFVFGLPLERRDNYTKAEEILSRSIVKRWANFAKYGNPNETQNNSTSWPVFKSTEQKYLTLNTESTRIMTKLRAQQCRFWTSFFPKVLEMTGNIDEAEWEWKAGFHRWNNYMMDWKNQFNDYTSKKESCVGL
# [9] = Drug metabolism in pH 7.4 PBS buffer assessed as 7-({1-[3-(3-Hydroxypropoxy)benzyl]piperidin-4-yl}methoxy)-3,4-dimethyl-2H-chromen-2-one formation at 100 uM up to 30 hrs by RP-HPLC method
# [10] = Half life in human serum at 100 uM by RP-HPLC method; assay type: ADME, cell-free
# [11] = Drug metabolism in pH 7.4 PBS buffer assessed as 7-({1-[3-(3-Hydroxypropoxy)benzyl]piperidin-4-yl}methoxy)-3,4-dimethyl-2H-chromen-2-one formation at 100 uM up to 30 hrs in presence of cysteine by RP-HPLC method
# [12] = Drug metabolism in pH 7.4 PBS buffer assessed as 7-({1-[3-(3-Hydroxypropoxy)benzyl]piperidin-4-yl}methoxy)-3,4-dimethyl-2H-chromen-2-one formation at 100 uM up to 30 hrs in presence of glutathione by RP-HPLC method
# [13] = Drug metabolism in pH 7.4 PBS buffer at 100 uM after 24 hrs in presence of cysteine by RP-HPLC method
# [14] = Drug metabolism in pH 7.4 PBS buffer at 100 uM after 24 hrs in presence of glutathione by RP-HPLC method
# [15] = Drug metabolism in pH 7.4 PBS buffer at 100 uM after 24 hrs by RP-HPLC method
smiles,measurement,setting,value
O=c1ccc2ccc(OCC3CCN(CCCO)CC3)cc2o1,inhibition at 10 µM,[1],26%
same,inhibition at 10 µM,[2],48%
same,inhibition at 10 µM,[3],39%
same,inhibition,[4],38%
same,inhibition,[5],26%
COc1cc2c(cc1OC)C(=O)C(CC1CCN(Cc3ccccc3)CC1)C2 (stereo not drawn),Activity,SH-SY5Y,Active
Cc1c(C)c2ccc(OCC3CCN(Cc4cccc(OCCCO[N+](=O)[O-])c4)CC3)cc2oc1=O,IC50,[6],1200 nM
same,IC50,[7],550 nM
same,Drug metabolism,[8],Tde
same,IC50,Acetylcholinesterase,480 nM
same,IC50,Cholinesterase,800 nM
same,Drug metabolism,[9],Metabolite detected
same,half-life at 100 µM,[10],19.1 days
same,Drug metabolism,[11],Metabolite not detected
same,Drug metabolism,[12],Metabolite not detected
same,Drug metabolism,[13],> 50%
same,Drug metabolism,[14],> 50%
same,Drug metabolism,[15],> 50%
